Measured values published in patent US20260325654A1, “METHODS AND COMPOSITIONS FOR TARGETED PROTEIN DEGRADATION” (Ranok Therapeutics (Hangzhou) Co. Ltd., priority 2023, published 2026).

Experiments:
GP2D = assay: CellTiter-Glo Reagent cancer cell line proliferation assay, GP2D; type: cell-based; conditions: Homo sapiens, KRAS(G12D) heterozygous, 24 hr
Source text: (§1) The following cancer cell lines were employed: • AsPC-1 human pancreatic adenocarcinoma, homozygous KRAS(G12D), (ATCC, #CRL-1682); A-427 human lung carcinoma, heterozygous KRAS(G12D), (ATCC, #HTB-53); AGS human gastric adenocarcinoma, heterozygous KRAS(G12D), (ATCC, #CRL-1739); GP2D human colon adenocarcinoma, heterozygous KRAS(G12D), (Sigma Aldrich, 95090714); SW1990 human pancreatic adenocarcinoma, homozygous KRAS(G12D), (ATCC, #CRL2172); LU65A human lung giant cell carcinoma, heterozygous KRAS(G12C), (JCRB Cell Bank, #JCRB0054); NCIH727 human lung carcinoid, heterozygous KRAS(G12V), (ATCC, #CRL-5815); MKN1 human gastric adenosquamous carcinoma KRAS (wt), (JCRB Cell Bank, #JCRB0252). Cell lines were cultured according to ATCC, JCRB and Sigma Aldrich recommendations.
(§2) Cells were plated in 96-well tissue culture plates at 4,000 cells/well and incubated at 37° C./5% CO2 for 24 hr in 100 μl of media. 3-fold serial dilutions of each test compound were prepared ranging from 20 μM to 1.02 nM. Cells were then treated with test compounds at various concentrations with a final concentration of 0.5% DMSO/well, and then incubated at 37° C./5% CO2 for 24 hr. 100 μl of CellTiter-Glo® Reagent (Promega Corporation, Madison, WI) was added to each well and processed according manufacturer's protocol. Results were analyzed and IC50-values were calculated in GraphPad 7 software.

AGS = assay: CellTiter-Glo Reagent cancer cell line proliferation assay, AGS; type: cell-based, human; conditions: KRAS(G12D) heterozygous
Source text: as §1, §2

NCIH727 = assay: CellTiter-Glo Reagent cancer cell line proliferation assay, NCIH727; type: cell-based, human; conditions: NCIH727, KRAS(G12V) heterozygous
Source text: as §1, §2

LU65A = assay: CellTiter-Glo Reagent cancer cell line proliferation assay, LU65A; type: cell-based, human; conditions: KRAS(G12C) heterozygous
Source text: as §1, §2

Compound | IC50 (GP2D) | IC50 (AGS; Homo sapiens, 24 h) | IC50 (NCIH727; Homo sapiens, NCI-H727, 24 h) | IC50 (LU65A; Homo sapiens, 24 h) | IC50 (NCIH727; 24 hr) | IC50 (AGS; 24 hr) | IC50 (LU65A; 24 hr)
[2H]C([2H])([2H])Oc1nc(-c2cc(O)cc3ccc(F)c(C#C)c23)c(F)c2nc(OCC3(CN4CCN(CC5CCN(c6ccc7c(c6)CN(C6CCC(=O)NC6=O)C7=O)CC5)CC4)CC3)nc(N3CC4CCC(C3)N4CC3CC3)c12 (centres unmarked) [Compound 99] | 0.1 to 1 µM | > 1 µM | – | – | – | – | –
C#Cc1c(F)ccc2cc(O)cc(-c3nc(OC(F)(F)F)c4c(N5CC6CCC(C5)N6C(=O)CCC#N)nc(OCC5(CN6CCN(CC7CCN(c8ccc9c(c8)CN(C8CCC(=O)NC8=O)C9=O)CC7)CC6)CC5)nc4c3F)c12 (centres unmarked) [Compound 151] | – | < 0.1 µM | < 0.1 µM | < 0.1 µM | – | – | –
C#Cc1c(F)ccc2cc(O)cc(-c3ncc4c(N5CCCOCC5)nc(OCC5(CN6CCN(CC7CCN(c8ccc9c(c8)CN(C8CCC(=O)NC8=O)C9=O)CC7)CC6)CC5)nc4c3F)c12 (centres unmarked) [Compound 134] | – | < 0.1 µM | < 0.1 µM | < 0.1 µM | – | – | –
C#Cc1c(F)ccc2cc(O)cc(-c3nc(OC)c4c(N5CC6CCC(C5)N6C(=O)CC(C)C#N)nc(OCC5(CN6CCN(CC7CCN(c8ccc9c(c8)CN(C8CCC(=O)NC8=O)C9=O)CC7)CC6)CC5)nc4c3F)c12 (centres unmarked) [Compound 135] | – | < 0.1 µM | < 0.1 µM | < 0.1 µM | – | – | –
C#Cc1c(F)ccc2cc(O)cc(-c3nc4c5c(nc(OCC6(CN7CCN(CC8CCN(c9ccc%10c(c9)CN(C9CCC(=O)NC9=O)C%10=O)CC8)CC7)CC6)nc5c3F)N(CC(F)F)[C@@H](C)CO4)c12 (some centres unmarked) [Compound 158] | – | < 0.1 µM | < 0.1 µM | < 0.1 µM | – | – | –
C#Cc1c(F)ccc2cc(O)cc(-c3ncc4c(N5CC6CCC(C5)N6C(=O)CC(C)C#N)nc(OCC5(CN6CCN(CC7CCN(c8ccc9c(c8)n(C)c(=O)n9C8CCC(=O)NC8=O)CC7)CC6)CC5)nc4c3F)c12 (centres unmarked) [Compound 136] | – | < 0.1 µM | < 0.1 µM | < 0.1 µM | – | – | –
C#Cc1c(F)ccc2cc(O)cc(-c3nc(OC)c4c(N5CC6CCC(C5)N6C(=O)CC(C)C#N)nc(OCC5(CN6CCN(C[C@H]7CCN(c8ccc9c(c8)CN(C8CCC(=O)NC8=O)C9=O)C[C@@H]7F)CC6)CC5)nc4c3F)c12 (some centres unmarked) [Compound 154] | – | < 0.1 µM | < 0.1 µM | < 0.1 µM | – | – | –
C#Cc1c(F)ccc2cc(O)cc(-c3ncc4c(N5CC6CCC(C5)N6C(=O)CC(C)C#N)nc(OCC5(CN(C)Cc6ccc(C7CN(c8ccc9c(c8)CN(C8CCC(=O)NC8=O)C9=O)C7)cc6)CC5)nc4c3F)c12 (centres unmarked) [Compound 132] | – | < 0.1 µM | < 0.1 µM | < 0.1 µM | – | – | –
C#Cc1c(F)ccc2cc(O)cc(-c3nc(OC)c4c(N5CC6CCC(C5)N6C(=O)CC(C)C#N)nc(OCC5(CNC6CCC(=O)NC6=O)CC5)nc4c3F)c12 (centres unmarked) [Compound 145] | – | < 0.1 µM | < 0.1 µM | < 0.1 µM | – | – | –
C#Cc1c(F)ccc2cc(O)cc(-c3ncc4c(N5CC6CCC(C5)N6C(=O)CC(C)C#N)nc(OCC5(CN6CCN(CC7CCN(c8ccc9c(c8)CN(C8CCC(=O)N(C)C8=O)C9=O)CC7)CC6)CC5)nc4c3F)c12 (centres unmarked) [Compound 130] | – | 0.1 to 1 µM | 0.1 to 1 µM | 0.1 to 1 µM | – | – | –
C#Cc1c(F)ccc2cc(O)cc(-c3nc(OC)c4c(N5CC6CCC(C5)N6C(=O)C(C#N)CC#N)nc(OCC5(CN6CCN(CC7CCN(c8ccc9c(c8)CN(C8CCC(=O)NC8=O)C9=O)CC7)CC6)CC5)nc4c3F)c12 (centres unmarked) [Compound 126] | – | < 0.1 µM | < 0.1 µM | < 0.1 µM | – | – | –
C#Cc1c(F)ccc2cc(O)cc(-c3nc(OC)c4c(N5CC6CCC(C5)N6C(=O)C[C@@H](C)C#N)nc(OCC5(CN6CCN(CC7CCN(c8ccc9c(c8)CN(C8CCC(=O)NC8=O)C9=O)CC7)CC6)CC5)nc4c3F)c12 (some centres unmarked) [Compound 143] | – | < 0.1 µM | < 0.1 µM | < 0.1 µM | – | – | –
C#Cc1c(F)ccc2cc(O)cc(-c3ncc4c(N5CC6CCC(C5)N6C(=O)CC(C)(C)C#N)nc(OCC5(CN6CCN(CC7CCN(c8ccc9c(c8)CN(C8CCC(=O)NC8=O)C9=O)CC7)CC6)CC5)nc4c3F)c12 (centres unmarked) [Compound 131] | – | < 0.1 µM | < 0.1 µM | < 0.1 µM | – | – | –
C#Cc1c(F)ccc2cc(O)cc(-c3nc(OC)c4c(N5CC6CCC(C5)N6C(=O)CC(C)C#N)nc(OCC5CCCN(CC6CCN(c7ccc8c(c7)CN(C7CCC(=O)NC7=O)C8=O)CC6)C5)nc4c3F)c12 (centres unmarked) [Compound 146] | – | < 0.1 µM | < 0.1 µM | < 0.1 µM | – | – | –
C#Cc1c(F)ccc2cc(O)cc(-c3nc(OC)c4c(N5CC6CCC(C5)N6C(=O)C[C@@H](C)C#N)nc(OCC5(CN6CCN(CC7CCN(c8ccc9c(N%10CCC(=O)NC%10=O)nn(C)c9c8)CC7)CC6)CC5)nc4c3F)c12 [Compound 160] | – | < 0.1 µM | < 0.1 µM | < 0.1 µM | – | – | –
C#Cc1c(F)ccc2cc(O)cc(-c3ncc4c(N5CC6CCC(C5)N6C(=O)CC(C)C#N)nc(OCC5(CN6CCN(CC7CCN(c8ccc(NC9CCC(=O)NC9=O)cc8F)CC7)CC6)CC5)nc4c3F)c12 (centres unmarked) [Compound 137] | – | < 0.1 µM | < 0.1 µM | < 0.1 µM | – | – | –
N#CCCC(=O)N1C2CCC1CN(c1nc(OCC3(CN4CCN(CC5CCN(c6ccc7c(c6)CN(C6CCC(=O)NC6=O)C7=O)CC5)CC4)CC3)nc3c(F)c(-c4cc(N)cc(Cl)c4C(F)(F)F)c(Cl)cc13)C2 (centres unmarked) [Compound 153] | – | < 0.1 µM | < 0.1 µM | < 0.1 µM | – | – | –
C#Cc1c(F)ccc2cc(O)cc(-c3nc(OC)c4c(N5CCCOC6CC65)nc(OCC5(CN6CCN(CC7CCN(c8ccc9c(c8)CN(C8CCC(=O)NC8=O)C9=O)CC7)CC6)CC5)nc4c3F)c12 (centres unmarked) [Compound 157] | – | < 0.1 µM | < 0.1 µM | < 0.1 µM | – | – | –
C#Cc1c(F)ccc2cc(O)cc(-c3nc(OC)c4c(N5CC6CCC(C5)N6C(=O)C[C@@H](C)C#N)nc(OCC5(CN6CCN(CN7CCC(N8Cc9cc%10c(cc9C8)C(=O)N(C8CCC(=O)NC8=O)C%10)CC7)CC6)CC5)nc4c3F)c12 (some centres unmarked) [Compound 162] | – | < 0.1 µM | < 0.1 µM | < 0.1 µM | – | – | –
C#Cc1c(F)ccc2cc(O)cc(-c3nc(OC)c4c(N5CC6CCC(C5)N6C(=O)CC(C)C#N)nc(OCC5(CN6CCC(CN7CCC(c8ccc9c(c8)CN(C8CCC(=O)NC8=O)C9=O)C(F)(F)C7)CC6)CC5)nc4c3F)c12 (centres unmarked) [Compound 161] | – | < 0.1 µM | < 0.1 µM | < 0.1 µM | – | – | –
C#Cc1c(F)ccc2cc(O)cc(-c3ncc4c(N5CC6CCC(C5)N6C(=O)CC(C)C#N)nc(OCC5(CN6CC7CC7C6)CC5)nc4c3OCc3ccc(-c4cn([C@H](C(=O)N5C[C@H](O)C[C@H]5C(=O)N[C@@H](CO)c5ccc(-c6ccnn6CC)cc5)C(C)C)nn4)cc3)c12 (some centres unmarked) [Compound 140] | – | – | – | – | < 0.1 µM | < 0.1 µM | < 0.1 µM
C#Cc1c(F)ccc2cc(O)cc(-c3nc(OC)c4c(N5CC6CCC(C5)N6C(=O)CC(C)C#N)nc(OCC5(CN6CCN(CC7CCN(c8cccc(NC9CCC(=O)NC9=O)c8)CC7)CC6)CC5)nc4c3F)c12 (centres unmarked) [Compound 142] | – | < 0.1 µM | < 0.1 µM | < 0.1 µM | – | – | –
C#Cc1c(F)ccc2cc(O)cc(-c3ncc4c(N5CC6CCC(C5)N6C(=O)CC(C)C#N)nc(OCC5CCCN(CC6CCN(c7ccc8c(c7)CN(C7CCC(=O)NC7=O)C8=O)CC6)C5)nc4c3F)c12 (centres unmarked) [Compound 133] | – | < 0.1 µM | < 0.1 µM | < 0.1 µM | – | – | –
C#Cc1c(F)ccc2cc(O)cc(-c3ncc4c(N5CC6CCC(C5)N6C(=O)CC(C)C#N)nc(OCC5(CN6CCN(CC7CCN(c8ccc9c(c8)CN(C8CCC(=O)NC8=O)C9=O)CC7)CC6)CC5)nc4c3F)c12 (centres unmarked) [Compound 129] | – | < 0.1 µM | < 0.1 µM | < 0.1 µM | – | – | –
